Experimental data reported in US10307403B2, “Polymorphic forms and process” (GALECTO BIOTECH AB, priority 2015, dated 2019).
Blank lines part the entries; values can stand above or below the compound they belong to.

Legend:
Format in all cases: physicochemical
[1] = Aerodynamic particle size determination (APSD) via New Generation Impactor (NGI); conditions: 20 mg in size 3 HPMC capsule, Plastiape Monodose inhaler
Description: To compare in vitro performance of the different forms for use in inhalation products, an aerodynamic particle size determination (APSD) was performed via New Generation Impactor (NGI) for Form 5 material produced via microfluidization and the amorphous form produced via spray drying. These were compared with the APSD obtained from micronized Form 1 material. For each APSD test, 20 mg 3,3′-Dideoxy-3,3′-bis-[4-(3-fluorophenyl)-1H-1,2,3-triazol-1-yl]-1,1′-sulfanediyl-di-β-D-galactopyranoside was filled into a size 3 HPMC capsule and actuated using a Plastiape Monodose inhaler device.

[2] = Stability of micronized Form 1 under ICH conditions
Excerpt: There is no increase in impurities and both the particle size and crystalline form remain unchanged.

[3] = Solid form stability and moisture uptake
[4] = listed as Amorphous (Spray Drying)
[5] = listed as Form 5 (microfluidization)

Mean Mass Aerodynamic Diameter (MMAD) [1]: in the respirable range
Fine Particle Dose (FPD) [1, 4]: 11.8 mg
Fine Particle Fraction (FPF) [1, 4]: 91%
Mean Mass Aerodynamic Diameter (MMAD) [1, 4]: 1.7 μm
Compound: OCC1O[C@@H](SC2O[C@H](CO)C(O)C(n3cc(-c4cccc(F)c4)nn3)[C@H]2O)C(O)C(n2cc(-c3cccc(F)c3)nn2)[C@H]1O (stereo partly drawn) [Amorphous, 3,3′-Dideoxy-3,3′-bis-[4-(3-fluorophenyl)-1H-1,2,3-triazol-1-yl]-1,1′-sulfanediyl-di-β-D-galactopyranoside]

Mean Mass Aerodynamic Diameter (MMAD) [1]: in the respirable range
Fine Particle Dose (FPD) ([1]; listed as Form 1 (micronized)): 7.4 mg
Fine Particle Fraction (FPF) ([1]; listed as Form 1 (micronized)): 77%
Mean Mass Aerodynamic Diameter (MMAD) ([1]; listed as Form 1 (micronized)): 2.6 μm
Appearance ([2]; 6 Months @ 40° C./75 RH): Conforms
Assay ([2]; 6 Months @ 40° C./75 RH): 97.2%
Particle Size D10 ([2]; 6 Months @ 40° C./75 RH): 0.50 μm
Particle Size D50 ([2]; 6 Months @ 40° C./75 RH): 1.97 μm
Particle Size D90 ([2]; 6 Months @ 40° C./75 RH): 4.68 μm
Polymorphism (crystalline form found) ([2]; 6 Months @ 40° C./75 RH): Form 1
Specified impurity DEX-IMP-284-B ([2]; 6 Months @ 40° C./75 RH): 0.89%
Specified impurity DEX-IMP-284-C ([2]; 6 Months @ 40° C./75 RH): 0.05%
Total Impurities ([2]; 6 Months @ 40° C./75 RH): 1.57%
Unspecified impurity 0.922RRT ([2]; 6 Months @ 40° C./75 RH): 0.12%
Unspecified impurity 1.057RRT ([2]; 6 Months @ 40° C./75 RH): 0.11%
Unspecified impurity 1.184RRT ([2]; 6 Months @ 40° C./75 RH): 0.34%
Water Content ([2]; 6 Months @ 40° C./75 RH): 5.2%
Appearance ([2]; 12 Months 25° C./60 RH): Conforms
Assay ([2]; 12 Months 25° C./60 RH): 97.7%
Particle Size D10 ([2]; 12 Months 25° C./60 RH): 0.51 μm
Particle Size D50 ([2]; 12 Months 25° C./60 RH): 1.84 μm
Particle Size D90 ([2]; 12 Months 25° C./60 RH): 4.29 μm
Polymorphism (crystalline form found) ([2]; 12 Months 25° C./60 RH): Form 1
Specified impurity DEX-IMP-284-B ([2]; 12 Months 25° C./60 RH): 0.89%
Specified impurity DEX-IMP-284-C ([2]; 12 Months 25° C./60 RH): 0.04%
Total Impurities ([2]; 12 Months 25° C./60 RH): 1.54%
Unspecified impurity 0.922RRT ([2]; 12 Months 25° C./60 RH): 0.12%
Unspecified impurity 1.057RRT ([2]; 12 Months 25° C./60 RH): 0.10%
Unspecified impurity 1.184RRT ([2]; 12 Months 25° C./60 RH): 0.34%
Water Content ([2]; 12 Months 25° C./60 RH): 4.4%
Overall stability conclusion (in words) ([2]; ICH conditions, Table 3A): stable both chemically and physically
Particle Size D10 ([2]; Initial): 0.56 μm
Polymorphism (crystalline form found) ([2]; Initial): Form 1
Unspecified impurity 1.057RRT ([2]; Initial): 0.08%
Unspecified impurity 1.184RRT ([2]; Initial): 0.34%
Water Content ([2]; Initial): 4.2%
Assay ([2]; Initial, criterion 95.0-105.0% w/w): 97.9%
Appearance ([2]; Initial, criterion white to off-white solid): Conforms
Specified impurity DEX-IMP-284-B ([2]; Initial, criterion ≤1% (a/a)): 0.90%
Specified impurity DEX-IMP-284-C ([2]; Initial, criterion ≤1% (a/a)): 0.03%
Unspecified impurity 0.922RRT ([2]; Initial, criterion ≤1% each (a/a)): 0.12%
Total Impurities ([2]; Initial, criterion ≤2.5% (a/a)): 1.54%
Particle Size D50 ([2]; Initial, target D50 ~2 μm): 2.37 μm
Particle Size D90 ([2]; Initial, target D90 ≤5 μm): 5.09 μm
Equilibrium water content after moisture pick-up ([3]; dried upon synthesis, then picks up moisture): 3-5%
Compound: OC[C@H]1O[C@@H](S[C@@H]2O[C@H](CO)[C@H](O)[C@H](n3cc(-c4cccc(F)c4)nn3)[C@H]2O)[C@H](O)[C@@H](n2cc(-c3cccc(F)c3)nn2)[C@H]1O [Form 1, 3,3′-Dideoxy-3,3′-bis-[4-(3-fluorophenyl)-1H-1,2,3-triazol-1-yl]-1,1′-sulfanediyl-di-β-D-galactopyranoside]
Stability of the solid form (in words) [3]: stable and does not convert to the other forms over time

Mean Mass Aerodynamic Diameter (MMAD) [1]: in the respirable range
Fine Particle Dose (FPD) [1, 5]: 7.7 mg
Fine Particle Fraction (FPF) [1, 5]: 63%
Mean Mass Aerodynamic Diameter (MMAD) [1, 5]: 2.3 μm
Stability of the solid form (in words) [3]: stable
Compound: OCC1O[C@@H](SC2O[C@H](CO)C(O)C(n3cc(-c4cccc(F)c4)nn3)[C@H]2O)C(O)C(n2cc(-c3cccc(F)c3)nn2)[C@H]1O (stereo partly drawn) [Form 5, 3,3′-Dideoxy-3,3′-bis-[4-(3-fluorophenyl)-1H-1,2,3-triazol-1-yl]-1,1′-sulfanediyl-di-β-D-galactopyranoside]
